Data set [1] concerns dog. As to conditions: Subchronic oral toxicity in nonrodent, beagle, Capsule, dose end: 90 day, group: systemic.
For data set [2], the system named is rat. As to conditions: Prenatal developmental toxicity study, sprague dawley, Oral, Gavage/Intubation, dose end: 17 GD.
Data set [3] deals with rat. As to conditions: Subchronic oral toxicity in rodents, sprague dawley, Feed, dose end: 3 month, group: systemic.
The subject of data set [4] is mouse. As to conditions: Subchronic dermal toxicity, b6c3f1, Topical, dose end: 13 week, group: systemic, systemic / pathology gross / sperm measure / sperm count.
Data set [5] concerns rat. As to conditions: Subchronic dermal toxicity, fischer, Topical, dose end: 13 week, group: systemic, systemic / organ weight / kidney / relative to body weight.
In data set [6] the test system is rat. As to conditions: Subchronic oral toxicity in rodents, fischer, Feed, dose end: 13 week.
The test system of data set [7] is mouse. As to conditions: Subchronic oral toxicity in rodents, b6c3f1, Feed, dose end: 13 week, group: systemic.
In data set [8] the test system is dog. As to conditions: Subchronic oral toxicity in nonrodent, beagle, Feed, dose end: 90 day, group: cholinesterase, cholinesterase / cholinesterase / cholinesterase / plasma cholinesterase (che).
The subject of data set [9] is dog. As to conditions: Subchronic oral toxicity in nonrodent, beagle, Feed, dose end: 26 week.
For data set [10], the system named is rat. As to conditions: Multigenerational reproductive toxicity study, Crl: CD(SD) BRVAF/Plus, Oral, [Not Specified], dose end: 2 generation.
In data set [11] the test system is mouse. As to conditions: Carcinogenicity; cd1; Oral; Feed; dose end: 97 week; group: cholinesterase; cholinesterase / cholinesterase / cholinesterase / erythrocyte cholinesterase (che) + cholinesterase / cholinesterase / cholinesterase / ….
For data set [12], the system named is rat. As to conditions: Prenatal developmental toxicity study, Oral, Gavage/Intubation, dose end: 15 GD, group: maternal.
Data set [13] has as its system rat. As to conditions: Combined chronic toxicity/carcinogenicity; fischer; Oral; Feed; dose end: 105 week; group: cholinesterase; cholinesterase / cholinesterase / cholinesterase / erythrocyte cholinesterase (che) + cholinesterase / cholinesterase / cholinesterase / ….
Setting [14] is: systemic / organ weight / liver / absolute + systemic / organ weight / liver / relative to body weight.
Where [15] appears, read: group: developmental, developmental / developmental malformation / bone / full supernumerary + developmental / developmental malformation / bone / cervical + ….
[16] abbreviates: group: maternal, systemic / in life observation / body weight / body weight gain + systemic / in life observation / food consumption / food consumption.
[17] abbreviates: group: maternal, systemic / in life observation / body weight / body weight gain + systemic / in life observation / food consumption / food consumption + ….
Setting [18] is: systemic / hematology / hematocrit (hct) / hematocrit (hct) + systemic / hematology / hemoglobin (hgb) / hemoglobin (hgb).
The mark [19] stands for this setting: systemic / hematology / hematocrit (hct) / hematocrit (hct) + systemic / hematology / hemoglobin (hgb) / hemoglobin (hgb) + systemic / in ….
Setting [20] is: group: maternal, reproductive / reproductive performance / estrous cycle / length.
Where [21] appears, read: group: systemic, systemic / clinical chemistry / gamma glutamyl transferase (ggt) / gamma glutamyl transferase (ggt) + systemic / in life observation / body ….
Setting [22] is: group: systemic, systemic / organ weight / liver / absolute + systemic / organ weight / liver / relative to body weight.
The mark [23] stands for this setting: systemic / in life observation / body weight / body weight + systemic / in life observation / body weight / body weight gain + systemic / ….
Setting [24] is: systemic / organ weight / liver / relative to body weight.
[25] abbreviates: group: cholinesterase, cholinesterase / cholinesterase / cholinesterase / plasma cholinesterase (che) + cholinesterase / cholinesterase / cholinesterase / ….
The mark [26] stands for this setting: group: systemic, systemic / hematology / erythrocyte (rbc) count differential / erythrocyte (rbc) + systemic / hematology / hemoglobin (hgb) / hemoglobin (….
The mark [27] stands for this setting: group: offspring, systemic / in life observation / body weight / offspring (pup) weight + systemic / in life observation / body weight / offspring (pup) ….
Where [28] appears, read: group: parental, systemic / in life observation / body weight / body weight + systemic / in life observation / body weight / body weight gain + systemic / in….
Where [29] appears, read: group: reproductive, reproductive / reproductive performance / implantations / implantations.
Setting [30] is: systemic / in life observation / body weight / body weight + systemic / in life observation / food consumption / food consumption.

Take `CC(C)(C)C(O)/C(=C\c1ccc(Cl)cc1Cl)n1cncn1` (configuration not stated) [Diniconazole]: the lowest observed adverse effect level (LOAEL) – broadly, the lowest tested level that showed an adverse finding – was 200 mg/kg/day with dog [1] (systemic / in life observation / food consumption / food efficiency); 20 mg/kg/day in the data set with rat [2] (group: developmental, developmental / developmental malformation / bone / full supernumerary + developmental / developmental malformation / bone / cervical); 20 mg/kg/day in the data set with rat [2] (setting [16]); 0.71 mg/kg/day with rat [3] (setting [18]). The no-observed-adverse-effect level (NOAEL) (in general, the highest dose or exposure tested at which no adverse effect was seen) was 40 mg/kg/day in the data set on dog [1] (systemic / in life observation / food consumption / food efficiency + systemic / clinical chemistry / alkaline phosphatase (alp/alk) / …), 5 mg/kg/day in the data set with rat [2] (setting [15]), 5 mg/kg/day in the data set on rat [2] (setting [17]) and below 0.71 mg/kg/day with rat [3] (setting [18]). Moreover, the LEL with dog [1] (setting [14]) was determined as 40 mg/kg/day; in the data set on rat [2] (setting [15]), 20 mg/kg/day; in the data set with rat [2] (setting [16]) it was 20 mg/kg/day; in the data set on rat [3] (setting [19]) it was 0.71 mg/kg/day. In addition, the NEL is below 40 mg/kg/day in the data set with dog [1] (setting [14]), 5 mg/kg/day with rat [2] (setting [15]), 5 mg/kg/day in the data set on rat [2] (setting [17]) and below 0.71 mg/kg/day with rat [3] (setting [19]).
Regarding `COc1ccc(C(=O)c2ccccc2)c(O)c1` [2-Hydroxy-4-methoxybenzophenone], the LEL in the data set on mouse [4] stood at 22.5 mg/kg/day; with rat [5], 25 mg/kg/day; in the data set with rat [6] (setting [20]), 3260 mg/kg/day; in the data set with rat [6] (setting [22]), 196 mg/kg/day; in the data set with mouse [7] (setting [24]), 629 mg/kg/day. The lowest-observed-adverse-effect level (LOAEL) was above 364 mg/kg/day in the data set on mouse [4]; above 200 mg/kg/day with rat [5]; above 3260 mg/kg/day in the data set on rat [6] (setting [20]); above 3260 mg/kg/day with rat [6] (setting [21]); above 13900 mg/kg/day with mouse [7] (setting [23]). The NEL was below 22.5 mg/kg/day with mouse [4]; 12.5 mg/kg/day with rat [5]; 1600 mg/kg/day in the data set with rat [6] (setting [20]); below 196 mg/kg/day with rat [6] (setting [22]); below 629 mg/kg/day with mouse [7] (setting [24]). Also, the NOAEL in the data set with mouse [4] was at least 364 mg/kg/day; in the data set on rat [5] it was at least 200 mg/kg/day; with rat [6] (setting [20]), at least 3260 mg/kg/day; with rat [6] (setting [21]), at least 3260 mg/kg/day; in the data set on mouse [7] (setting [23]), at least 13900 mg/kg/day.
For `CCCSP(=O)(OCC)Oc1ccc(Br)cc1Cl` (configuration not stated) [Profenofos], the LEL with dog [8] was 0.05 mg/kg/day; in the data set on dog [9] (setting [25]) it was 0.005 mg/kg/day; in the data set on dog [9] (setting [26]), 12.5 mg/kg/day; in the data set with rat [10] (setting [27]), 29 mg/kg/day; in the data set with rat [10] (setting [28]), 29 mg/kg/day; in the data set with rat [10] (setting [29]) it was 29 mg/kg/day. The values for the LEL in the data set on mouse [11], in the data set with rat [12] (systemic / in life observation / food consumption / food consumption) and in the data set with rat [13] were 4.54 mg/kg/day, 30 mg/kg/day and 1 mg/kg/day, respectively. The LOAEL in the data set on dog [8] was 0.05 mg/kg/day; with dog [9] (setting [25]) it was 0.05 mg/kg/day; in the data set on dog [9] (setting [26]) it was above 12.5 mg/kg/day; in the data set on rat [10] (setting [27]), 29 mg/kg/day; with rat [10] (setting [28]), 29 mg/kg/day; in the data set on rat [10] (setting [29]) it was above 29 mg/kg/day. In addition, the LOAEL in the data set on mouse [11] is 4.54 mg/kg/day; in the data set with rat [12] (setting [30]) it was 60 mg/kg/day; in the data set with rat [13], 1 mg/kg/day. Besides, the NEL with dog [8] is below 0.05 mg/kg/day; with dog [9] (setting [25]), below 0.005 mg/kg/day; in the data set with dog [9] (setting [26]), 2.5 mg/kg/day; in the data set with rat [10] (setting [27]), 7.3 mg/kg/day; in the data set with rat [10] (setting [28]), 7.3 mg/kg/day; in the data set with rat [10] (setting [29]), 7.3 mg/kg/day. The NEL in the data set on mouse [11] stood at 0.14 mg/kg/day; with rat [12] (setting [30]), 10 mg/kg/day; in the data set with rat [13] it was 0.03 mg/kg/day. In addition, the no observed adverse effect level (NOAEL) is below 0.05 mg/kg/day in the data set on dog [8]; 0.005 mg/kg/day in the data set on dog [9] (group: cholinesterase, cholinesterase / cholinesterase / cholinesterase / plasma cholinesterase (che) + cholinesterase / cholinesterase / cholinesterase / brain …); at least 12.5 mg/kg/day in the data set on dog [9] (setting [26]); 7.3 mg/kg/day in the data set on rat [10] (setting [27]); 7.3 mg/kg/day in the data set with rat [10] (setting [28]); at least 29 mg/kg/day with rat [10] (setting [29]). The NOAEL was determined as 0.14 mg/kg/day in the data set with mouse [11], 30 mg/kg/day in the data set with rat [12] (setting [30]) and 0.03 mg/kg/day with rat [13].

For the origin of these results see EPA's ToxRefDB 2.
